Measured values from PubChem BioAssay (NCI).
Several values for one entry are separate records, joined by “and”; a condition that tells them apart may be missing. Equal values may be shown once.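 1) Cells in 96-well plates. 2) Compound, 48 h, 5 concentrations. 3) Linear interpolation between surrounding doses. 4) Unreached endpoint = highest concentration. At the GI50, growth is halved. TGI denotes the concentration required for complete inhibition of growth.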

Experiments:
Assay in all cases: NCI tumour cell line growth inhibition, 48 h
A498 renal = tested on: A498 renal
A549 NSCLC = tested on: A549 NSCLC
CAKI-1 renal = tested on: CAKI-1 renal
CCRF-CEM leukemia = tested on: CCRF-CEM leukemia
COLO 205 colon = tested on: COLO 205 colon
DLD-1 colon = tested on: DLD-1 colon
DMS 114 small cell lung = tested on: DMS 114 small cell lung
DMS 273 small cell lung = tested on: DMS 273 small cell lung
EKVX NSCLC = tested on: EKVX NSCLC
HCC-2998 colon = tested on: HCC-2998 colon
HCT-116 colon = tested on: HCT-116 colon
HCT-15 colon = tested on: HCT-15 colon
HL-60(TB) leukemia = tested on: HL-60(TB) leukemia
HOP-18 NSCLC = tested on: HOP-18 NSCLC
HOP-62 NSCLC = tested on: HOP-62 NSCLC
HOP-92 NSCLC = tested on: HOP-92 NSCLC
HT29 colon = tested on: HT29 colon
IGROV1 ovarian = tested on: IGROV1 ovarian
K-562 leukemia = tested on: K-562 leukemia
KM12 colon = tested on: KM12 colon
KM20L2 colon = tested on: KM20L2 colon
LOX IMVI melanoma = tested on: LOX IMVI melanoma
M19-MEL melanoma = tested on: M19-MEL melanoma
MALME-3M melanoma = tested on: MALME-3M melanoma
MCF7 breast = tested on: MCF7 breast
MOLT-4 leukemia = tested on: MOLT-4 leukemia
NCI-H226 lung = tested on: NCI-H226 lung
NCI-H23 lung = tested on: NCI-H23 lung
NCI-H460 lung = tested on: NCI-H460 lung
NCI-H522 lung = tested on: NCI-H522 lung
NCI/ADR-RES ovarian = tested on: NCI/ADR-RES ovarian
OVCAR-3 ovarian = tested on: OVCAR-3 ovarian
OVCAR-4 ovarian = tested on: OVCAR-4 ovarian
OVCAR-5 ovarian = tested on: OVCAR-5 ovarian
OVCAR-8 ovarian = tested on: OVCAR-8 ovarian
P388 leukemia = tested on: P388 leukemia
P388/ADR leukemia = tested on: P388/ADR leukemia
RPMI-8226 leukemia = tested on: RPMI-8226 leukemia
RXF 393 renal = tested on: RXF 393 renal
SF-268 CNS = tested on: SF-268 CNS
SF-295 CNS = tested on: SF-295 CNS
SF-539 CNS = tested on: SF-539 CNS
SK-MEL-2 melanoma = tested on: SK-MEL-2 melanoma
SK-MEL-28 melanoma = tested on: SK-MEL-28 melanoma
SK-MEL-5 melanoma = tested on: SK-MEL-5 melanoma
SK-OV-3 ovarian = tested on: SK-OV-3 ovarian
SN12C renal = tested on: SN12C renal
SN12K1 renal = tested on: SN12K1 renal
SNB-19 CNS = tested on: SNB-19 CNS
SNB-75 CNS = tested on: SNB-75 CNS
SW-620 colon = tested on: SW-620 colon
U251 CNS = tested on: U251 CNS
UACC-257 melanoma = tested on: UACC-257 melanoma
UACC-62 melanoma = tested on: UACC-62 melanoma
UO-31 renal = tested on: UO-31 renal
XF 498 CNS = tested on: XF 498 CNS
786-0 renal = tested on: 786-0 renal
ACHN renal = tested on: ACHN renal
BT-549 breast = tested on: BT-549 breast
DU-145 prostate = tested on: DU-145 prostate
M14 melanoma = tested on: M14 melanoma
MDA-MB-231 breast = tested on: MDA-MB-231 breast
MDA-MB-435 = tested on: MDA-MB-435
MDA-N = tested on: MDA-N
PC-3 prostate = tested on: PC-3 prostate
SR leukemia = tested on: SR leukemia
T-47D breast = tested on: T-47D breast
TK-10 renal = tested on: TK-10 renal

For Cc1ccc(N(O)C(C)(C)C)cc1, the TGI (A498 renal) was greater than 100000 nM, the TGI (A549 NSCLC) was greater than 100000 nM and the TGI (CAKI-1 renal) was greater than 100000 nM. The TGI (CCRF-CEM leukemia) was greater than 100000 nM, the TGI (COLO 205 colon) was greater than 100000 nM and the TGI (DLD-1 colon) was greater than 100000 nM. It also gave a TGI (DMS 114 small cell lung) greater than 100000 nM, a TGI (DMS 273 small cell lung) greater than 100000 nM and a TGI (EKVX NSCLC) greater than 100000 nM. It also gave a TGI (HCC-2998 colon) greater than 100000 nM, a TGI (HCT-116 colon) greater than 100000 nM and a TGI (HCT-15 colon) greater than 100000 nM. It also gave a TGI (HL-60(TB) leukemia) greater than 100000 nM, a TGI (HOP-18 NSCLC) greater than 100000 nM and a TGI (HOP-62 NSCLC) greater than 100000 nM. For the same compound, the TGI (HOP-92 NSCLC) was greater than 100000 nM, the TGI (HT29 colon) was greater than 100000 nM and the TGI (IGROV1 ovarian) was greater than 100000 nM. The TGI (K-562 leukemia) was greater than 100000 nM, the TGI (KM12 colon) was greater than 100000 nM and the TGI (KM20L2 colon) was greater than 100000 nM. For the same compound, the TGI (LOX IMVI melanoma) was greater than 100000 nM, the TGI (M19-MEL melanoma) was greater than 100000 nM and the TGI (MALME-3M melanoma) was greater than 100000 nM. It also gave a TGI (MCF7 breast) greater than 100000 nM, a TGI (MOLT-4 leukemia) greater than 100000 nM and a TGI (NCI-H226 lung) greater than 100000 nM. The TGI (NCI-H23 lung) was greater than 100000 nM, the TGI (NCI-H460 lung) was greater than 100000 nM and the TGI (NCI-H522 lung) was greater than 100000 nM. The TGI (NCI/ADR-RES ovarian) was greater than 100000 nM, the TGI (OVCAR-3 ovarian) was greater than 100000 nM and the TGI (OVCAR-4 ovarian) was greater than 100000 nM. It also gave a TGI (OVCAR-5 ovarian) greater than 100000 nM, a TGI (OVCAR-8 ovarian) greater than 100000 nM and a TGI (P388 leukemia) greater than 100000 nM. For the same compound, the TGI (P388/ADR leukemia) was greater than 100000 nM, the TGI (RPMI-8226 leukemia) was greater than 100000 nM and the TGI (RXF 393 renal) was greater than 100000 nM. The TGI (SF-268 CNS) was greater than 100000 nM, the TGI (SF-295 CNS) was greater than 100000 nM and the TGI (SF-539 CNS) was greater than 100000 nM. For the same compound, the TGI (SK-MEL-2 melanoma) was greater than 100000 nM, the TGI (SK-MEL-28 melanoma) was greater than 100000 nM and the TGI (SK-MEL-5 melanoma) was greater than 100000 nM. The TGI (SK-OV-3 ovarian) was greater than 100000 nM, the TGI (SN12C renal) was greater than 100000 nM and the TGI (SN12K1 renal) was greater than 100000 nM. The TGI (SNB-19 CNS) was greater than 100000 nM, the TGI (SNB-75 CNS) was greater than 100000 nM and the TGI (SW-620 colon) was greater than 100000 nM. It also gave a TGI (U251 CNS) greater than 100000 nM, a TGI (UACC-257 melanoma) greater than 100000 nM and a TGI (UACC-62 melanoma) greater than 100000 nM. For the same compound, the TGI (UO-31 renal) was greater than 100000 nM and the TGI (XF 498 CNS) was greater than 100000 nM.

C[C@@H]1O[C@@H](O[C@H]2CC[C@]3(C=O)[C@H]4CC[C@]5(C)[C@@H](c6ccc(=O)oc6)CC[C@]5(O)[C@@H]4CC[C@]3(O)C2)[C@H](O)[C@H](O)[C@H]1O[C@@H]1O[C@H](CO)[C@@H](O)[C@H](O)[C@H]1O was tested, and the TGI (786-0 renal) was 16.4 nM and 17.4 nM, the TGI (ACHN renal) was 19.5 nM and 23.3 nM and the GI50 (BT-549 breast) was 25.2 nM. The TGI (BT-549 breast) was 28.5 nM and 70.1 nM, the GI50 (CAKI-1 renal) was 37.5 nM and the TGI (CAKI-1 renal) was 32.2 nM and 25.1 nM and 37.9 nM. For the same compound, the GI50 (DMS 114 small cell lung) was less than 0.000375 nM, the GI50 (DU-145 prostate) was 12.9 nM and the TGI (DU-145 prostate) was 8.37 nM and 42.4 nM. The TGI (HCT-116 colon) was 35.8 nM and 19.4 nM, the TGI (HOP-18 NSCLC) was 21.9 nM and the GI50 (M14 melanoma) was 30.4 nM. For the same compound, the TGI (M14 melanoma) was 48.3 nM and 125 nM, the GI50 (MALME-3M melanoma) was 14.2 nM and 20.6 nM and the TGI (MALME-3M melanoma) was 34.3 nM and 47.7 nM. The TGI (MDA-MB-231 breast) was 129 nM, the GI50 (MDA-MB-435) was 26.1 nM and the TGI (MDA-MB-435) was 34.4 nM and 62 nM. For the same compound, the GI50 (MDA-N) was 17.3 nM, the TGI (MDA-N) was 59.5 nM and 33.3 nM and the TGI (MOLT-4 leukemia) was 14.4 nM and 70.8 nM. The GI50 (NCI-H226 lung) was 40.9 nM, the TGI (NCI-H226 lung) was 57.6 nM and 43.7 nM and 93.3 nM and the GI50 (NCI-H23 lung) was less than 0.000375 nM. For the same compound, the TGI (P388 leukemia) was 176000 nM, the TGI (P388/ADR leukemia) was 355000 nM and the GI50 (PC-3 prostate) was 17.8 nM. The TGI (PC-3 prostate) was 28.5 nM and 33.6 nM, the TGI (SF-539 CNS) was 21 nM and 24.5 nM and the GI50 (SNB-19 CNS) was 30.1 nM and 37.5 nM. The TGI (SNB-19 CNS) was 141 nM and 118 nM and 64.3 nM, the TGI (SR leukemia) was 868 nM and the GI50 (T-47D breast) was 24 nM. The TGI (T-47D breast) was 46.5 nM and 56.4 nM, the GI50 (TK-10 renal) was 13.2 nM and the TGI (TK-10 renal) was 16 nM and 56.9 nM. The GI50 (UO-31 renal) was 37.5 nM and the TGI (UO-31 renal) was 51.2 nM and 47.9 nM.
